Test results as given in patent US20140093513A1, “METHODS OF LOWERING PROPROTEIN CONVERSATE SUBTILISIN/KEXIN TYPE 9 (PCSK9)” (Catabasis Pharmaceuticals, Inc., priority 2012, published 2014).

System: PCSK9
Assay: PCSK9 secretion assay in HepG2 cells (PCSK9 ELISA)
Assay type: cell-based
Details: HepG2 cells, 16 hours incubation, at least 6 concentrations
Description: HepG2 cells (from ATCC, Catalog no. HB-8065) were maintained in DMEM (Invitrogen) supplemented with 10% fetal bovine serum (Invitrogen). The day prior to the PCSK9 assay, cells are seeded in 96-well collagen coated plates at 25,000 cells/well.
The compounds of the invention were stored at −20° C. until used. The test article compound was dissolved in 100% ethanol to a 50 mM stock solution. This was then diluted in FBS to a final concentration of 1 mM. This solution was placed in a sonicating water bath for 30 minutes. Subsequent dilutions were then made in FBS supplemented with an equivalent volume of ethanol and mixed by vortexing.
HepG2 cells were seeded onto a collagen coated 96-well plate (Becton Dickinson, Catalog no. 35-4407) the day prior to the assay, as described above. The next day, the cell medium was removed, washed once with 100 μL serum free DMEM to remove any residual PCSK9, and replaced with 90 μL of serum free DMEM. Ten microliters of each compound concentration prepared in FBS was then added. Each concentration of compound was tested in triplicate. The compound was incubated with the cells overnight for 16 hours. Following this incubation, 10 μL of AlamarBlue was added to each well and cells incubated for another 2 hours. The plates were then removed and AlamarBlue fluorescence was measured (excitation, 550 nm and […]) to assess cell viability. Cell culture supernatant was then diluted […] 1×RDSP Calibrator Diluent and PCSK9 ELISA was then performed with 50 μL of this diluted sample, as per the manufacturer's instructions. The ELISA was measured on a Victor X5 multilabel plate reader (PerkinElmer) at an absorbance of 450 nm with background correction measured at 550 nm (The PCSK9 Elisa kits can be purchased from R&D System, Catalog no. DPC900).
Alternatively, an IC50 could also be obtained when this type of assay was carried out using at least 6 different concentrations of the test compounds. Table 1 lists the IC50 values for the compounds tested in this assay.

IC50 [µM] | SMILES
< 25 | CC/C=C\C/C=C\C/C=C\C/C=C\C/C=C\C/C=C\CCC(=O)NCCN(C)CCNC(=O)c1cccnc1 [Compound I-2]
< 25 | CC/C=C\C/C=C\C/C=C\C/C=C\C/C=C\C/C=C\CCC(=O)N(C)CCNC(=O)c1cccnc1 [Compound I-14, N-(2-((4Z,7Z,10Z,13Z,16Z,19Z)—N-methyldocosa-4,7,10,13,16,19-hexaenamido)ethyl)nicotinamide]
25 to 50 | CC/C=C\C/C=C\C/C=C\C/C=C\C/C=C\CCCC(=O)NCCNC(=O)[C@@H](NC(=O)c1cccnc1)C(C)C [Compound I-25, N—((S)-1-((2-((5Z,8Z,11Z,14Z,17Z)-icosa-5,8,11,14,17-pentaenamido)ethyl)amino)-3-methyl-1-oxobutan-2-yl)nicotinamide]
25 to 50 | CC/C=C\C/C=C\C/C=C\C/C=C\C/C=C\CCCC(=O)NCCNC(=O)CCNC(=O)c1cccnc1 [Compound I-26, N-(3-((2-((5Z,8Z,11Z,14Z,17Z)-icosa-5,8,11,14,17-pentaenamido)ethyl)amino)-3-oxopropyl)nicotinamide]
< 25 | CC/C=C\C/C=C\C/C=C\C/C=C\C/C=C\CCCC(=O)NCCNC(=O)[C@@H]1CCCN1C(=O)c1cccnc1 [Compound I-27, (S)—N-(2-((5Z,8Z,11Z,14Z,17Z)-icosa-5,8,11,14,17-pentaenamido)ethyl)-1-nicotinoylpyrrolidine-2-carboxamide]
< 25 | CC/C=C\C/C=C\C/C=C\C/C=C\C/C=C\CCCC(=O)NCC1CCN(C(=O)c2cccnc2)CC1 [Compound I-29, (5Z,8Z,11Z,14Z,17Z)—N-((1-nicotinoylpiperidin-4-yl)methyl)icosa-5,8,11,14,17-pentaenamide]
25 to 50 | CC/C=C\C/C=C\C/C=C\C/C=C\C/C=C\CCCC(=O)NCCNC(=O)CNC(=O)c1cccnc1 [Compound I-30, N-(2-((2-((5Z,8Z,11Z,14Z,17Z)-icosa-5,8,11,14,17-pentaenamido)ethyl)amino)-2-oxoethyl)nicotinamide]
< 25 | CC/C=C\C/C=C\C/C=C\C/C=C\C/C=C\CCCC(=O)N1CCC(CNC(=O)c2cccnc2)CC1 [Compound I-31, N-((1-((5Z,8Z,11Z,14Z,17Z)-icosa-5,8,11,14,17-pentaenoyl)piperidin-4-yl)methyl)nicotinamide]
< 25 | CC/C=C\C/C=C\C/C=C\C/C=C\C/C=C\CCCC(=O)N[C@H]1CC[C@H](CNC(=O)c2cccnc2)CC1 [Compound I-41, N-(((1R,4R)-4-((5Z,8Z,11Z,14Z,17Z)-icosa-5,8,11,14,17-pentaenamido)cyclohexyl)methyl)nicotinamide]
> 50 | CC/C=C\C/C=C\C/C=C\C/C=C\C/C=C\CCCC(=O)N[C@H]1CC[C@H](NC(=O)c2cccnc2)CC1 [Compound I-42, N-((1R,4R)-4-((5Z,8Z,11Z,14Z,17Z)-icosa-5,8,11,14,17-pentaenamido)cyclohexyl)nicotinamide]
< 25 | CC/C=C\C/C=C\C/C=C\C/C=C\C/C=C\CCCC(=O)N(C)CC1CCN(C(=O)c2cccnc2)CC1 [Compound I-48, (5Z,8Z,11Z,14Z,17Z)—N-methyl-N-((1-nicotinoylpiperidin-4-yl)methyl)icosa-5,8,11,14,17-pentaenamide]
> 50 | CC/C=C\C/C=C\C/C=C\C/C=C\C/C=C\CCCC(=O)NCCNC(=O)c1ccccc1NC(=O)c1cccnc1 [Compound I-59, N-(2-((2-((5Z,8Z,11Z,14Z,17Z)-icosa-5,8,11,14,17-pentaenamido)ethyl)carbamoyl)phenyl)nicotinamide]
> 50 | CC/C=C\C/C=C\C/C=C\C/C=C\C/C=C\CCCC(=O)N1CCN(C(=O)c2ccccc2NC(=O)c2cccnc2)CC1 [Compound I-60, N-(2-(4-((5Z,8Z,11Z,14Z,17Z)-icosa-5,8,11,14,17-pentaenoyl)piperazine-1-carbonyl)phenyl)nicotinamide]
25 to 50 | CC/C=C\C/C=C\C/C=C\C/C=C\C/C=C\CCCC(=O)NCCNC(=O)c1ccc(CCN2CCOCC2)nc1 [Compound V-2, N-(2-((5Z,8Z,11Z,14Z,17Z)-icosa-5,8,11,14,17-pentaenamido)ethyl)-6-(2-morpholinoethyl)nicotinamide]
< 25 | CC/C=C\C/C=C\C/C=C\C/C=C\C/C=C\CCCC(=O)NCCNC(=O)c1ccc(CCN2CCCC2)nc1 [Compound V-8, N-(2-((5Z,8Z,11Z,14Z,17Z)-icosa-5,8,11,14,17-pentaenamido)ethyl)-6-(2-(pyrrolidin-1-yl)ethyl)nicotinamide]

SMILES | IC50 [µM]
CC/C=C\C/C=C\C/C=C\C/C=C\C/C=C\C/C=C\CCC(=O)NCCNC(=O)c1cccnc1 [Compound I-7, N-(2-(4Z,7Z,10Z,13Z,16Z,19Z)-docosa-4,7,10,13,16,19-hexaenamidoethyl)nicotinamide] | < 25
CC/C=C\C/C=C\C/C=C\C/C=C\C/C=C\CCCC(=O)N1CCN(C(=O)c2cccnc2)CC1 [Compound I-13, (5Z,8Z,11Z,14Z,17Z)-1-(4-nicotinoylpiperazin-1-yl)icosa-5,8,11,14,17-pentaen-1-one] | 25 to 50
CC/C=C\C/C=C\C/C=C\C/C=C\C/C=C\CCCC(=O)NCCCCNC(=O)c1cccnc1 [Compound I-19, N-(4-((5Z,8Z,11Z,14Z,17Z)-icosa-5,8,11,14,17-pentaenamido)butyl)nicotinamide] | < 25
CC/C=C\C/C=C\C/C=C\C/C=C\C/C=C\CCCC(=O)NCC(C)(C)NC(=O)c1cccnc1 [Compound I-21, N-(1-((5Z,8Z,11Z,14Z,17Z)-icosa-5,8,11,14,17-pentaenamido)-2-methylpropan-2-yl)nicotinamide] | < 25
CC/C=C\C/C=C\C/C=C\C/C=C\C/C=C\CCCC(=O)N1CCC(NC(=O)c2cccnc2)CC1 [Compound I-22, N-(1-((5Z,8Z,11Z,14Z,17Z)-icosa-5,8,11,14,17-pentaenoyl)piperidin-4-yl)nicotinamide] | < 25
CC/C=C\C/C=C\C/C=C\C/C=C\C/C=C\CCCC(=O)N[C@H]1CCN(C(=O)c2cccnc2)C1 [Compound I-23, (5Z,8Z,11Z,14Z,17Z)—N—((S)-1-nicotinoylpyrrolidin-3-yl)icosa-5,8,11,14,17-pentaenamide] | < 25
CC/C=C\C/C=C\C/C=C\C/C=C\C/C=C\CCCC(=O)NC1CCN(C(=O)c2cccnc2)CC1 [Compound I-28, (5Z,8Z,11Z,14Z,17Z)—N-(1-nicotinoylpiperidin-4-yl)icosa-5,8,11,14,17-pentaenamide] | < 25
CC/C=C\C/C=C\C/C=C\C/C=C\C/C=C\CCCC(=O)NC[C@@H]1CCCN1C(=O)c1cccnc1 [Compound I-32, (5Z,8Z,11Z,14Z,17Z)—N—(((S)-1-nicotinoylpyrrolidin-2-yl)methyl)icosa-5,8,11,14,17-pentaenamide] | < 25
CC/C=C\C/C=C\C/C=C\C/C=C\C/C=C\CCCC(=O)NC[C@H]1CCCN1C(=O)c1cccnc1 [Compound I-33, (5Z,8Z,11Z,14Z,17Z)—N—(((R)-1-nicotinoylpyrrolidin-2-yl)methyl)icosa-5,8,11,14,17-pentaenamide] | < 25
CC/C=C\C/C=C\C/C=C\C/C=C\C/C=C\CCCC(=O)N1CCC[C@H]1CNC(=O)c1cccnc1 [Compound I-34, N—(((S)-1-((5Z,8Z,11Z,14Z,17Z)-icosa-5,8,11,14,17-pentaenoyl)pyrrolidin-2-yl)methyl)nicotinamide] | < 25
CC/C=C\C/C=C\C/C=C\C/C=C\C/C=C\CCCC(=O)N(C)[C@H]1CCN(C(=O)c2cccnc2)C1 [Compound I-49, (5Z,8Z,11Z,14Z,17Z)—N-methyl-N—((S)-1-nicotinoylpyrrolidin-3-yl)icosa-5,8,11,14,17-pentaenamide] | 25 to 50
CC/C=C\C/C=C\C/C=C\C/C=C\C/C=C\CCCC(=O)N1CC[C@H](N(C)C(=O)c2cccnc2)C1 [Compound I-61, N—((S)-1-((5Z,8Z,11Z,14Z,17Z)-icosa-5,8,11,14,17-pentaenoyl)pyrrolidin-3-yl)-N-methylnicotinamide] | > 50
CC/C=C\C/C=C\C/C=C\C/C=C\C/C=C\CCCC(=O)Nc1nc(C)ncc1CNC(=O)c1cccnc1 [Compound I-64, N-((4-((5Z,8Z,11Z,14Z,17Z)-icosa-5,8,11,14,17-pentaenamido)-2-methylpyrimidin-5-yl)methyl)nicotinamide] | 25 to 50
CC/C=C\C/C=C\C/C=C\C/C=C\C/C=C\CCCC(=O)NCCNC(=O)c1ccccc1 [II-1, N-(2-((5Z,8Z,11Z,14Z,17Z)-icosa-5,8,11,14,17-pentaenamido)ethyl)benzamide] | 25 to 50

Same assay, conditions: HepG2 cells, at 25 and 50 μM, FIG. 1

SMILES | lowering of PCSK9
CC/C=C\C/C=C\C/C=C\C/C=C\C/C=C\CCCC(=O)NCCNC(=O)c1ccccc1 [II-1, N-(2-((5Z,8Z,11Z,14Z,17Z)-icosa-5,8,11,14,17-pentaenamido)ethyl)benzamide] | significant lowering of PCSK9

Same assay, conditions: HepG2 cells, highest tested concentration of 50 μM, FIG. 1

SMILES | activity toward PCSK9
CC/C=C\C/C=C\C/C=C\C/C=C\C/C=C\CCCC(=O)NCCNC(C)=O [Compound A, (5Z,8Z,11Z,14Z,17Z)—N-(2-acetamidoethyl)icosa-5,8,11,14,17-pentaenamide, reference compound] | essentially no activity
